Source: ChEMBL document CHEMBL1146328, “Binding mode and affinity studies of DNA-binding agents using topoisomerase I DNA unwinding assay” (Bioorg Med Chem Lett, 2007)

Tests used:
[1] = molecular target: T1, DNA topoisomerase 1 (Homo sapiens) (UniProt P11387); assay: Binding affinity to topoisomerase 1 assessed as concentration needed for complete DNA re-supercoiling by Topo1 assay
T1 sequence (whole entry): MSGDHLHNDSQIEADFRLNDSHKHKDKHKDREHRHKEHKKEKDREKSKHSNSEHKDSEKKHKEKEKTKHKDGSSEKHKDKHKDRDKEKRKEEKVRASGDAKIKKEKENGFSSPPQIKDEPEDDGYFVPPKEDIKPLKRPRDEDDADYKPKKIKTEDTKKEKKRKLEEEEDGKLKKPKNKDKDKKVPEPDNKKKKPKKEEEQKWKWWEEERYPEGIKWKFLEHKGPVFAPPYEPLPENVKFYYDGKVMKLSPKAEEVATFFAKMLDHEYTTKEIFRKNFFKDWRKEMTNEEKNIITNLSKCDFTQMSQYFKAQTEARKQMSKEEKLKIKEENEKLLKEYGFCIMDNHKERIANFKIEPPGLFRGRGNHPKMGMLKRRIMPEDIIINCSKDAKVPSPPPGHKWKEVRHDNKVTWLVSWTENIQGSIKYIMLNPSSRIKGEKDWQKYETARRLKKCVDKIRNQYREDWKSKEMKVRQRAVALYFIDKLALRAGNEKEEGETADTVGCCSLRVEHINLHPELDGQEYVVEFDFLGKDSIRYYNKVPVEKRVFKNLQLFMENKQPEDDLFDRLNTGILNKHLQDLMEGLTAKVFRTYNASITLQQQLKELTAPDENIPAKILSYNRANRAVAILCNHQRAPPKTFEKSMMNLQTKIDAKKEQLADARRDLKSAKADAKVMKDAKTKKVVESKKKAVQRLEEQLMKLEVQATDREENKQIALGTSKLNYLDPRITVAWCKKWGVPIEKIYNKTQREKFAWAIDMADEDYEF

[2] = Partition coefficient, log P of the compound; assay type: physicochemical; details: octanol/water
Homo sapiens [3] = organism: Homo sapiens; assay: Binding affinity to DNA assessed as thermal melting temperature
Homo sapiens [4] = organism: Homo sapiens; assay: Binding affinity to DNA by spectrophotometric titration method
DNA = assay: Binding affinity to calf thymus DNA by ITC method; assay type: nucleic-acid assay; details: Bos taurus

Row | Structure (SMILES) | Activity [1] [µM] | logP [2] | ΔTm (Homo sapiens [3]) [°C] | K (Homo sapiens [4]) | K (DNA)
1 | C[N+](C)(C)CCCN1C(=O)c2ccc3c4c(ccc(c24)C1=O)C(=O)N(CCC[N+](C)(C)C)C3=O | 3 | -2.5 | 7.6 | 5 10^5/M | 12.2 10^5/M
2 | CCCC[N+](C)(CCCC)CCCN1C(=O)c2ccc3c4c(ccc(c24)C1=O)C(=O)N(CCC[N+](C)(CCCC)CCCC)C3=O | 5 | -0.9 | 4.6 | 1 10^5/M | 5.7 10^5/M
